Molecular target: T1, human M1 receptor (hCHRM1) (Homo sapiens, UniProt P11229)
T1 construct: expressed in transfected cells
T1 sequence (P11229 1-460): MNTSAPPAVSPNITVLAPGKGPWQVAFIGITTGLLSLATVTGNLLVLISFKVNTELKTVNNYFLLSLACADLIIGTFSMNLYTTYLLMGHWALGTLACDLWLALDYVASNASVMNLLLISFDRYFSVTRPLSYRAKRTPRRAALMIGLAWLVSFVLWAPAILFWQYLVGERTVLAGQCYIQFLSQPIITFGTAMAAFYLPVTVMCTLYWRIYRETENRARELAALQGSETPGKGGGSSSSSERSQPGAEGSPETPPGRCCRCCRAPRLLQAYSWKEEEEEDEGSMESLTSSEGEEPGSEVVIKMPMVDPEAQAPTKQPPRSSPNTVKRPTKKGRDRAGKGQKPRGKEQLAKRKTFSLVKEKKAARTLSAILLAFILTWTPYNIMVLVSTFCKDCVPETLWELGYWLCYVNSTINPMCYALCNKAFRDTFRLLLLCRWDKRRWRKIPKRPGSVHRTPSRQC
Assay: Measurement of M1 receptor positive allosteric modulator (M1PAM) activity (IP1 HTRF, in presence of EC20 acetylcholine)
Format: cell-based
Settings: CHO-K1 cells stably expressing hCHRM1; acetylcholine at EC20 concentration; IP1 readout
Experimental: Measurement of M1 Receptor Positive Allosteric Modulator (M1PAM) Activity
The activity of a test compound in the presence of acetylcholine at an EC20 concentration affording about 20% action of the maximum activity was measured as PAM activity.
The method therefor is as follows. To a 384-well white plate (Greiner) was added 4 μL of the test compound diluted with IP1 Stimulation buffer (CisBio) containing 0.1% fatty acid-free BSA containing 80 nM acetylcholine. Freeze stock of CHO-K1 cells stably expressing human M1 receptor (hCHRM1) was prepared with IP1 Stimulation buffer (CisBio) containing 0.1% fatty acid-free BSA, 4 μL thereof was added (10,000 cells/well) and the mixture was cultured in a 5% CO2 incubator at 37° C. for 1 hr. 4 μL of a solution (CisBio) containing IP1-d2 and Anti-IP1-cryptate Tb conjugate was added, the mixture was incubated at room temperature for 1 hr, and the time-resolved fluorescence signal was measured on an Envision plate reader (PerkinElmer). The activity (%) of the test compound was calculated by defining the value when acetylcholine was added at the final concentration of 20 μM as 100% and the value when DMSO was added instead of the test compound under acetylcholine-free conditions as 0%, and the EC50 value was calculated as a value of 50% of the concentration dependence curve of the test compound.

Row | Compound | EC50 [nM]
1 | Cc1c(Cc2ccc(-c3cnn(C)c3)nc2)cc(C(=O)N[C@H]2CCOC[C@@H]2O)c2c1CCO2 [Example 2, 1,5-anhydro-2,3-dideoxy-3-[{4-methyl-5-{[6-(1-methyl-1H-pyrazol-4-yl)pyridin-3-yl]methyl}-2,3-dihydro-1-benzofuran-7-carbonyl)amino]-L-threo-pentitol] | 33
2 | Cc1nn(C)cc1-c1ccc(Cc2cc(C(=O)N[C@H]3CCOC[C@@H]3O)c3c(c2C)CCO3)cn1 [Example 3, 1,5-anhydro-2,3-dideoxy-3-[(5-{[6-(1,3-dimethyl-1H-pyrazol-4-yl)pyridin-3-yl]methyl}-4-methyl-2,3-dihydro-1-benzofuran-7-carbonyl)amino]-L-threo-pentitol] | 46
3 | Cc1c(Cc2ccc(C(N)=O)cc2)cc(C(=O)N[C@H]2CCOC[C@@H]2O)c2c1CCO2 [Example 5, 1,5-anhydro-3-({5-[(4-carbamoylphenyl)methyl]-4-methyl-2,3-dihydro-1-benzofuran-7-carbonyl}amino)-2,3-dideoxy-L-threo-pentitol] | 12
4 | CNC(=O)c1ccc(Cc2cc(C(=O)N[C@H]3CCOC[C@@H]3O)c3c(c2C)CCO3)cc1F [Example 21, 1,5-anhydro-2,3-dideoxy-3-[(5-{[3-fluoro-4-(methylcarbamoyl)phenyl]methyl)-4-methyl-2,3-dihydro-1-benzofuran-7-carbonyl)amino]-L-threo-pentitol] | 24
5 | Cc1c(Cc2ccc(C(=O)NC[C@@H]3CCCO3)c(F)c2)cc(C(=O)N[C@H]2CCOC[C@@H]2O)c2c1CCO2 [Example 30, 1,5-anhydro-2,3-dideoxy-3-[(5-{[3-fluoro-4-({[(2S)-oxolan-2-yl]methyl}carbamoyl)phenyl]methyl}-4-methyl-2,3-dihydro-1-benzofuran-7-carbonyl)amino]-L-threo-pentitol] | 56
6 | Cc1c(Cc2ccc(C(=O)NC3CC3)c(F)c2)cc(C(=O)N[C@H]2CCOC[C@@H]2O)c2c1CCO2 [Example 31, 1,5-anhydro-3-[(5-{[4-(cyclopropylcarbamoyl)-3-fluorophenyl]methyl}-4-methyl-2,3-dihydro-1-benzofuran-7-carbonyl)amino]-2,3-dideoxy-L-threo-pentitol] | 37
7 | Cc1c(Cc2ccc(C(=O)NCCF)c(F)c2)cc(C(=O)N[C@H]2CCOC[C@@H]2O)c2c1CCO2 [Example 35, 1,5-anhydro-2,3-dideoxy-3-{[5-({3-fluoro-4-[(2-fluoroethyl)carbamoyl]-phenyl}methyl)-4-methyl-2,3-dihydro-1-benzofuran-7-carbonyl]amino}-L-threo-pentitol] | 16
8 | CNC(=O)c1ccc(Cc2cc(C(=O)N[C@H]3CCOC[C@@H]3O)c3c(c2C)CCO3)cn1 [Example 36, 1,5-anhydro-2,3-dideoxy-3-[(4-methyl-5-{[6-(methylcarbamoyl)pyridin-3-yl]methyl}-2,3-dihydro-1-benzofuran-7-carbonyl)amino]-L-threo-pentitol] | 130

— patent US11970483B2, “Heterocyclic compound” (Takeda Pharmaceutical Company Limited, priority 2018, dated 2024)
